Values belong to the molecule of their own block, whether it stands above or below them.
Experiments:
CYP 2D6 = molecular target: T1, CYP 2D6 (Homo sapiens, UniProt P10635); assay: Inhibition of CYP activity in human liver microsomes, 2D6; assay type: in vitro ADME; conditions: 10 μM compound, human liver microsomes 0.25 mg/mL; % activity relative to the negative control
T1 construct: from tissue; host or cells: human liver microsomes
Description: (§1) Thereafter, the reaction was terminated by adding an acetonitrile solution containing an internal standard substrate (terfenadine), followed by centrifugation (14,000 rpm, 4° C.) for 5 minutes. Subsequently, the supernatant was injected into the LC-MS/MS system, and the metabolites of the substrate drugs were simultaneously analyzed to evaluate the inhibitory ability of these compounds on drug metabolic enzymes. The metabolites of each CYP isoenzyme indicator drug generated through the above reaction were analyzed using the Shimadzu Nexera XR system and TSQ vantage (Thermo). A Kinetex C18 column was used as the HPLC column, and distilled water containing 0.1% formic acid and acetonitrile containing 0.1% formic acid were used as the mobile phase. The generated metabolites were quantified using the quantification mode of multiple reaction monitoring (MRM), and data were analyzed with Xcalibur (version 1.6.1).

CYP 3A4 = molecular target: T2, CYP 3A4 (Homo sapiens, UniProt P08684); assay: Inhibition of CYP activity in human liver microsomes, 3A4; assay type: in vitro ADME; conditions: 10 μM compound, human liver microsomes 0.25 mg/mL; % activity relative to the negative control
T2 construct: from tissue; host or cells: human liver microsomes
T2 sequence (P08684 whole entry): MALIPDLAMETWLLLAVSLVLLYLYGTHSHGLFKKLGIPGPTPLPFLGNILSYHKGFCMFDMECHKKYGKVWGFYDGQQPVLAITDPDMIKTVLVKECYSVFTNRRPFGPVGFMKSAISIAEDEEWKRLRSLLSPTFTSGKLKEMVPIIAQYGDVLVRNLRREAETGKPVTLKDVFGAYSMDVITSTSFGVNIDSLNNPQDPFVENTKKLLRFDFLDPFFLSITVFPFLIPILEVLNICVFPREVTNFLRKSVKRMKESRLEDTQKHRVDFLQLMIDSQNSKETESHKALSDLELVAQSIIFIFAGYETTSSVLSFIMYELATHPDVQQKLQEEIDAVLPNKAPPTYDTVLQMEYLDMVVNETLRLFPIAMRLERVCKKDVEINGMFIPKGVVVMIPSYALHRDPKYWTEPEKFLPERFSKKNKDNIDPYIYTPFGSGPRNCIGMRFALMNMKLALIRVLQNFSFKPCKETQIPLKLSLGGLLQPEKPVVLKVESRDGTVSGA
Description: as §1

CYP 2C19 = molecular target: T3, CYP 2C19 (Homo sapiens, UniProt P33261); assay: Inhibition of CYP activity in human liver microsomes, 2C19; assay type: in vitro ADME; conditions: 10 μM compound, human liver microsomes 0.25 mg/mL; % activity relative to the negative control
T3 construct: from tissue; host or cells: human liver microsomes
T3 sequence (P33261 whole entry): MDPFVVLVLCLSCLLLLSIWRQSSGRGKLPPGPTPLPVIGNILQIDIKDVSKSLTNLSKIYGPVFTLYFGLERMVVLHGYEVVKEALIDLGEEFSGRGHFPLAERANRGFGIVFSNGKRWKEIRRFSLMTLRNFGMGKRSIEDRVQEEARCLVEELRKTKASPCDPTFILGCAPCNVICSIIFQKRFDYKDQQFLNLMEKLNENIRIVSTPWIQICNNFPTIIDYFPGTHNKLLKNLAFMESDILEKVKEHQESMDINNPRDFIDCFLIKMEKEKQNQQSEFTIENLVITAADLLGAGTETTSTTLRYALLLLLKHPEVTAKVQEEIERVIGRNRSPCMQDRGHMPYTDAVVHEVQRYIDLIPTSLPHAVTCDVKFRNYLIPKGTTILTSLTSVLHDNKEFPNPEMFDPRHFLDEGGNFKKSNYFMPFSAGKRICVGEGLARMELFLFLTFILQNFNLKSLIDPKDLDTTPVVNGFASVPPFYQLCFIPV
Description: as §1

Nrf2 [1] = assay: Nrf2 functional cell-based assay (DisoveRx), luminescence; conditions: for EC50: U2OS cells, 6 hours incubation, concentration that activates by 50% relative to the maximum effect
Description: In order to confirm the pharmacological activity of the compounds synthesized according to Examples 1 to 18 of the present invention, the effects of the synthesized derivatives on inducing the activity of Nrf2, a major regulator of the defense against oxidative stress, were evaluated by constructing an Nrf2 functional cell-based assay (DisoveRx). Specifically, U2OS cells were used, and after the cell pellet was released with CP 0 reagent, the cells were loaded in an amount of 80 μL into a 96-well plate at a density of 1.5×10^4 cells/well and incubated for 24 hours. The compounds synthesized according to Examples 1 to 18 were diluted 3 times in DMSO at 7 different concentrations to prepare a stock solution. 10 μL. of each compound solution was mixed with 90 μL of CP 0 and added in an amount of 20 μL to each well of the 96-well plate, and each experiment was repeated three times. […] Substrate reagents 1 and 2 were added to the cell assay buffer and mixed, and then 50 μL of the substrate reagent was added to a 96-well plate per well, wrapped in foil, and incubated for 1 hour. Thereafter, the luminescence value was measured at all wavelengths and at integration time of 100 ms using a luminescence spectrophotometer (Molecular Devices). […] The results are shown in Table 5 below, and the efficacy of the compounds was compared as a percentage with respect to the sulforaphane-treated group. As another control group, a chalcone derivative, VSC2 ((F)-1-(2-((2-methoxyphenyl)sulfonyl)vinyl)-2-chlorobenzene, Woo et al., J. Med. Chem., 2014, 57:1473-1487), which has a parent structure similar to that of the present invention, and which has been confirmed to induce activation of Nrf2 through the structural changes of Keap1, was used.

CYP 1A2 = molecular target: T4, CYP 1A2 (Homo sapiens, UniProt P05177); assay: Inhibition of CYP activity in human liver microsomes, 1A2; assay type: in vitro ADME; conditions: 10 μM compound, human liver microsomes 0.25 mg/mL; % activity relative to the negative control
T4 construct: from tissue; host or cells: human liver microsomes
T4 sequence (P05177 1-516): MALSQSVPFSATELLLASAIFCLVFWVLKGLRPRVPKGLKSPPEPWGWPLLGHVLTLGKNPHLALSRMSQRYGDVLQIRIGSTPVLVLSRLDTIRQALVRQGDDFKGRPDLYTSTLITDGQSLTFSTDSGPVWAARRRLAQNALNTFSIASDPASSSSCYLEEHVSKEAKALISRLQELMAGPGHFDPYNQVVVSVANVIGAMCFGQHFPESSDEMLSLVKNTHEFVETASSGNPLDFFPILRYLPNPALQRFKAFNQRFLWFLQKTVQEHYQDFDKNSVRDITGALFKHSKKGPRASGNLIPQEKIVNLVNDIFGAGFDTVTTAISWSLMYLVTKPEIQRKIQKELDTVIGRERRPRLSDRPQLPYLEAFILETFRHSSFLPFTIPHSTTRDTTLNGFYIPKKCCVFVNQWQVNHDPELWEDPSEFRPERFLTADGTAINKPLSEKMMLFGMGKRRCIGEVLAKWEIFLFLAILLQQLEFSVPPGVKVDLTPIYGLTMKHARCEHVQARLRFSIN
Description: as §1

CYP 2C9 = molecular target: T5, CYP 2C9 (Homo sapiens, UniProt P11712); assay: Inhibition of CYP activity in human liver microsomes, 2C9; assay type: in vitro ADME; conditions: 10 μM compound, human liver microsomes 0.25 mg/mL; % activity relative to the negative control
T5 construct: from tissue; host or cells: human liver microsomes
T5 sequence (P11712 whole entry): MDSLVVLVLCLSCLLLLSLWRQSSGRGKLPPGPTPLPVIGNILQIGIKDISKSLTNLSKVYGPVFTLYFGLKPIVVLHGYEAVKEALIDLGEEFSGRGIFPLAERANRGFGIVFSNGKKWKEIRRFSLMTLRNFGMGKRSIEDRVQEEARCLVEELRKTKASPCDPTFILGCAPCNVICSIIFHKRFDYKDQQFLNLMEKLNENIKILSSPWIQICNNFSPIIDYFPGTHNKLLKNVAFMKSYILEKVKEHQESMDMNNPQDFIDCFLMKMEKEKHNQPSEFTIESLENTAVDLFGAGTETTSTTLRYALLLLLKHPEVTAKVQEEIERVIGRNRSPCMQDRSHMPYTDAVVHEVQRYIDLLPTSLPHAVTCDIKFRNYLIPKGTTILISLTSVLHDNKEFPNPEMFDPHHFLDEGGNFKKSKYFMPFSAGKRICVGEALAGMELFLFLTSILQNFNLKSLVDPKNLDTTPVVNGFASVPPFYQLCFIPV
Description: as §1

Solubility in water = assay type: physicochemical
Source text: In the development of new drugs, the solubility of drugs is one of the very important factors associated with the bio-absorption rate. […] In addition, drugs with low solubility may crystallize in tissues or cause serious toxicity, and thus, the FDA requires additional research results on oral drugs with low solubility. Furthermore, low solubility may also be the biggest cause of failure in the development of candidate materials.

Nrf2 [2] = assay: Nrf2 functional cell-based assay (DisoveRx), luminescence; conditions: relative to Compound 15

T1 sequence (P10635 whole entry): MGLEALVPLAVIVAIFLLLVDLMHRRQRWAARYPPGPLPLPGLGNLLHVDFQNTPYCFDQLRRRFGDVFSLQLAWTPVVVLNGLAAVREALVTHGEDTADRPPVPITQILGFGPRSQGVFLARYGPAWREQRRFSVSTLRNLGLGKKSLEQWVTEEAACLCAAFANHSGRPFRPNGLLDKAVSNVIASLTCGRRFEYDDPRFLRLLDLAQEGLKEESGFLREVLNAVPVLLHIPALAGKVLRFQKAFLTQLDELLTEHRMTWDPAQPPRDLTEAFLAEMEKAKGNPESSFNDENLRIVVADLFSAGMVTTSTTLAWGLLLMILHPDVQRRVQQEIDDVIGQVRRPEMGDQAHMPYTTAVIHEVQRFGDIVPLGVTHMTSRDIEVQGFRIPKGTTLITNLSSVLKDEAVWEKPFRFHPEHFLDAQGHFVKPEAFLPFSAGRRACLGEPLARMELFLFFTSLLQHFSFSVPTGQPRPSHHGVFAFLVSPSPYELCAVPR

CYP 2D6 activity (CYP 2D6): 86.0%
CYP 3A4 activity (CYP 3A4): 100.0%
CYP 2C19 activity (CYP 2C19): 47.3%
EC50 (Nrf2 [1]): 30 nM
CYP 1A2 activity (CYP 1A2): 96.0%
CYP 2C9 activity (CYP 2C9): 62.6%
Structure (SMILES): O=S(=O)(/C=C/c1ncccc1Cl)c1ccccc1F [Compound 4, (E)-3-chloro-2-(2-(2-fluorophenylsulfonyl)vinyl)pyridine]

solubility (Solubility in water): < 10 µg/mL
Structure (SMILES): COc1ccccc1S(=O)(=O)/C=C/c1cccnc1Cl [Comparative Example 2, (E)-2-chloro-3-(2-(2-methoxyphenylsulfonyl)vinyl)pyridine, reference compound]
Effect of inducing Nrf2 activity as % of the level of Compound 15 (Nrf2 [2]): ~10%

CYP 2D6 activity (CYP 2D6): 100.0%
CYP 3A4 activity (CYP 3A4): 86.0%
CYP 2C19 activity (CYP 2C19): 40.0%
EC50 (Nrf2 [1]): 147 nM
CYP 1A2 activity (CYP 1A2): 94.0%
CYP 2C9 activity (CYP 2C9): 100.0%
Structure (SMILES): O=S(=O)(/C=C/c1cccc(Cl)n1)c1ccccc1Cl [Compound 13, (E)-2-chloro-6-(2-(2-chlorophenylsulfonyl)vinyl)pyridine]

EC50 (Nrf2 [1]): 384 nM
Structure (SMILES): O=S(=O)(/C=C/c1cccnc1Cl)c1ccccc1Cl [Compound 14, (E)-2-chloro-3-(2-(2-chlorophenylsulfonyl)vinyl)pyridine]

EC50 (Nrf2 [1]): 474 nM
Structure (SMILES): O=S(=O)(/C=C/c1ncccc1F)c1cccc(F)c1 [Compound 2, (E)-3-fluoro-2-(2-(3-fluorophenylsulfonyl)vinyl)pyridine]

EC50 (Nrf2 [1]): 198 nM
Structure (SMILES): O=S(=O)(/C=C/c1ncccc1F)c1cccc(Cl)c1 [Compound 8, (E)-2-(2-(3-chlorophenylsulfonyl)vinyl)-3-fluoropyridine]

EC50 (Nrf2 [1]): 65 nM
Structure (SMILES): O=S(=O)(/C=C/c1ncccc1Cl)c1ccc(Cl)cc1 [Compound 12, (E)-3-chloro-2-(2-(4-chlorophenylsulfonyl)vinyl)pyridine]

EC50 (Nrf2 [1]): 122 nM
Structure (SMILES): O=S(=O)(/C=C/c1ncccc1F)c1ccccc1Cl [Compound 7, (E)-2-(2-(2-chlorophenylsulfonyl)vinyl)-3-fluoropyridine]

EC50 (Nrf2 [1]): 542 nM
Structure (SMILES): O=S(=O)(/C=C/c1ncccc1F)c1ccc(F)cc1 [Compound 3, (E)-3-fluoro-2-(2-(4-fluorophenylsulfonyl)vinyl)pyridine]

EC50 (Nrf2 [1]): 46 nM
Structure (SMILES): O=S(=O)(/C=C/c1ncccc1Cl)c1cccc(Cl)c1 [Compound 11, (E)-3-chloro-2-(2-(3-chlorophenylsulfonyl)vinyl)pyridine]

EC50 (Nrf2 [1]): 231 nM
Structure (SMILES): O=S(=O)(/C=C/c1ncccc1Cl)c1ccc(F)cc1 [Compound 6, (E)-3-chloro-2-(2-(4-fluorophenylsulfonyl)vinyl)pyridine]

EC50 (Nrf2 [1]): 26 nM
Structure (SMILES): O=S(=O)(/C=C/c1ncccc1Cl)c1ccccc1Cl [Compound 10, (E)-3-chloro-2-(2-(2-chlorophenylsulfonyl)vinyl)pyridine]
Nrf2 activation effect relative to sulforaphane (Nrf2 [1]; ratio to sulforaphane): ≥ 15 times

EC50 (Nrf2 [1]): 286 nM
Structure (SMILES): O=S(=O)(/C=C/c1ncccc1F)c1ccc(Cl)cc1 [Compound 9, (E)-2-(2-(4-chlorophenylsulfonyl)vinyl)-3-fluoropyridine]

CYP 2D6 activity (CYP 2D6): 87.0%
CYP 3A4 activity (CYP 3A4): 100.0%
CYP 2C19 activity (CYP 2C19): 65.9%
EC50 (Nrf2 [1]): 176 nM
CYP 1A2 activity (CYP 1A2): 96.0%
CYP 2C9 activity (CYP 2C9): 100.0%
Structure (SMILES): O=S(=O)(/C=C/c1ncccc1F)c1ccccc1F [Compound 1, (E)-3-fluoro-2-(2-(2-fluorophenylsulfonyl)vinyl)pyridine]

EC50 (Nrf2 [1]): 84 nM
Structure (SMILES): O=S(=O)(/C=C/c1ncccc1Cl)c1cccc(F)c1 [Compound 5, (E)-3-chloro-2-(2-(3-fluorophenylsulfonyl)vinyl)pyridine]

Structure (SMILES): CN1CCN(C(=O)COc2ccc(S(=O)(=O)/C=C/c3ncccc3F)cc2)CC1.Cl [Compound 17, (E)-2-(4-(2-(3-fluoropyridin-2-yl)vinylsulfonyl)phenoxy)-1-(4-methylpiperazin-1-yl)ethanone hydrochloride]
CYP 2C9 activity (CYP 2C9): 122.0%

— patent US12234207B2, “Halo-(3-(phenylsulfonyl)prop-1-enyl)pyridine derivative and use thereof” (Cureverse Incorporated, priority 2018, dated 2025)
